In patent US20110135774A1, “Process for Preparing a Plant Extract of Passiflora Alata and Use of Said Extract in Cosmetic and Pharmaceutical Compositions” (priority 2007, published 2011):

Key:
Assay type in all cases: cell-based
Conditions in all cases: Fibroblast
IL-6 secretion [1] = assay: Inhibition of IL-6 secretion in human dermal fibroblasts stimulated with LPS or UVB (Example 7.2)
Protocol: (§1) Dermis-derived human fibroblasts were incubated with lipopolysaccharide (LPS) or UV to induce the secretion of pro-inflammatory markers IL-6 and IL-8. The anti-inflammatory potential of the sample was identified by the reduction in the secretion of the pro-inflammatory markers. Material used: Dermis-derived human fibroblasts, kept in culture until the tenth passage at most. Sterile-culture plates with 96 wells, non-sterile plates with 96 wells, conical tubes of 15 ml and 50 ml, radiation chamber with UVB lamp. 96-well plates were prepared with 2×10^4 cells/well in 100 μl μl of DMEM containing 10% SFB. The cells were incubated overnight in a CO2 oven. The culture medium was discarded and the wells were washed with 200 μl PBS. 100 μl of DMEM containing 1% SFB and the suitable stimuli were added. Incubation was carried out in a CO2 oven overnight. […] 100 μl of PBS and the suitable stimuli were added. […] After stimulation, supernatants were collected, stored at −20° C. and assessed by ELISA (described below). In order to keep cell viability after stimulation, the cells were incubated with a Neutral Red solution for 3 hours and, after washing with 200 μl of PBS, 200 μl of development solution were added, and the reading was performed at 540 nm. […] The quantification of pro-inflammatory markers was determined from the comparisons with the standard curves specifically constructed for IL-6 or IL-8. […]

IL-8 secretion [2] = assay: Inhibition of IL-8 secretion in human dermal fibroblasts stimulated with LPS or UVB (Example 7.2)
Protocol: as §1

IL-6 secretion [3] = assay: Inhibition of IL-6 secretion in human dermal fibroblasts (Example 7.1)
Protocol: (§2) The objective of this test was to assess the anti-inflammatory potential of in vitro extracts, using human dermal fibroblast cultures. The statistical significance (p<0.05) of the data was verified by the analysis of variance (One-Way ANOVA) followed by a Tukey multiple comparison using the SYSTAT 10 software.
(§3) Human fibroblasts derived from the dermis were incubated with lipopolysaccharide (LPS) of Escherichia coli to induce the secretion of pro-inflammatory citokines IL-6 and IL-8 (Interleukin 6 and 8). The anti-inflammatory potential of the sample was identified by the reduction in the secretion of the pro-inflammatory markers. • Material used: Dermis-derived human fibroblasts, kept in culture until the tenth passage at most. […]
(§4) After stimulation, supernatants were collected, stored at −20° C. and analysed by ELISA (described below). In order to keep cell viability after stimulation, the cells were incubated with a Neutral Red solution for 3 hours and after washing with 200 μl of PBS, 200 μl of development solution were added, and the reading was performed at 540 nm. […]
(§5) For the ELISA test, 96-well plates were used. The quantification of pro-inflammatory markers was determined from the comparisons with the standard curves specifically constructed for IL-6 or IL-8. […]

IL-8 secretion [4] = assay: Inhibition of IL-8 secretion in human dermal fibroblasts (Example 7.1)
Protocol: as §2, §3, §4, §5

[5] = light or radiation study, UVB 0.23 J/cm2 + 5 uM, reference UVB
[6] = 5 uM + LPS 10 ng/ml, reference LPS
[7] = 5 uM, no LPS, reference Control
[8] = LPS 10 ng/ml + 5 uM, reference LPS

Compound	inhibition at 5 µM (IL-6 secretion [1]; [5])	inhibition at 5 µM (IL-8 secretion [2]; [5])	inhibition at 5 µM (IL-6 secretion [3]; [6])	inhibition at 5 µM (IL-6 secretion [3]; [7])	inhibition at 5 µM (IL-8 secretion [4]; [6])	inhibition at 5 µM (IL-8 secretion [4]; [7])	inhibition at 5 µM (IL-6 secretion [1]; [8])	inhibition at 5 µM (IL-8 secretion [2]; [8])
C[C@]12CCC(=O)C=C1CC[C@@H]1[C@@H]2[C@@H](O)C[C@@]2(C)[C@H]1CC[C@]2(O)C(=O)CO [Hydrocortisone]	71%	79%						
C[C@@H]1C[C@H]2[C@@H]3CCC4=CC(=O)C=C[C@]4(C)[C@@]3(F)[C@@H](O)C[C@]2(C)[C@@]1(O)C(=O)CO [Dexamethasone]			96%	71%	53%	68%	94%	82%
